{"source": "patent US20020162794A1", "about": "“Anaerobic digestion” (priority 2001, published 2002)", "key": {"[1]": {"system": "mixed culture from a publicly owned anaerobic digester", "test": "Identification of predominant colony types in the mixed culture", "type": "cell-based"}, "cattle": {"system": "cattle", "settings": "added to organic roughage fed to cattle; cited from earlier work"}, "[2]": {"system": "anaerobic mixed culture (domestic sewage)", "test": "Anaerobic digestion of domestic sewage, overall effect of formate salt concentration", "protocol": "The various formate salts include, but are not limited to sodium formate (NaHCOO), potassium formate (KHCOO), ammonium formate (NH4COO), calcium formate (Ca(HCOO)2), and others either singly or in combination. These formate salts have been tested for concentrations ranging from 10 mg/L (˜10 ppm) to as high as […] (100,000 mg/L) based on the organic matter available for digestion.\nTwo tests were run in which sodium formate in concentrations ranging from a few parts per million (ppm) up to ten percent (10%) on a mass basis were added to samples taken from a publicly owned anaerobic digester. The samples were first cultured in laboratory sized batch reactors. The twelve batch reactors were then sampled, and studied for periods of up to fifty-five days. The process variables that were monitored included COD (Chemical Oxygen Demand), TS (Total Solids), TVS (Total Volatile Solids) and the pH of the culture. Time and the initial sodium formate concentration level were the independent variables. Finally measurements were also made of the bacterial counts at the beginning and at the end of the fifty five day period.\nMunicipal sludge from the city of Lubbock, Wastewater Treatment Plant was digested in 12 batch digesters. Using twelve batch reactors allowed the collection of control reactors data (i.e., no formate in the reactors) in triplicate, titration studies of increasing formate concentration, and duplicates/triplicates of varying formate concentration. Experiments were conducted in the laboratories of Texas Tech University."}}, "data": [{"smiles": "O=C[O-].[Na+]", "note": "[sodium formate]", "values": [{"measurement": "colony types identified", "setting": "[1]; 10% level", "result": "only Cellulomonas cellulans was identified along with large masses of yeast cells"}, {"measurement": "bio-diversity of the mixed culture", "setting": "[1]; 1000-5000 ppm", "result": "increase the bio-diversity of the mixed culture"}, {"measurement": "number of predominant colony types", "setting": "[1]; 1000 ppm, control had two", "result": "eight"}, {"measurement": "growth of colonies in the mixed culture", "setting": "[1]; lower levels (≦5000 ppm)", "result": "facilitate growth of some of the more dormant colonies in the mixed culture"}, {"measurement": "increase of digestibility of the feed", "setting": "cattle", "result": "4-27%"}, {"measurement": "effect on anaerobic digestion over the tested concentration range", "setting": "[2]; 10 mg/L to 100,000 mg/L based on the organic matter available for digestion", "result": "beneficial at all concentration levels"}, {"measurement": "concentration range of greatest effects", "setting": "[2]; 10 mg/L to 100,000 mg/L tested", "result": "greatest effects being observed over the 100 ppm to the 2,000-mg/L range"}, {"measurement": "cellular activity in the mixed culture", "setting": "[2]; above the 5000 ppm concentration level", "result": "slightly, but still progressively more inhibited"}, {"measurement": "effect of accidental addition of too much (titration data)", "setting": "[2]; overdose", "result": "would not shut down the digester culture"}, {"measurement": "effect on anaerobic digestion process", "setting": "[2]; up to 5000 ppm, batch reactors, up to 55 days", "result": "facilitate the anaerobic digestion process at all concentration levels up to 5000 ppm"}]}]}
